{"source": "patent US10870625B2", "about": "“Zwitterionic propargyl-linked antifolates useful for treating bacterial infections” (THE UNIVERSITY OF CONNECTICUT, priority 2016, dated 2020)", "key": {"[1]": {"test_system": "S. aureus ATCC strain 43300", "assay": "microbe, parasite or virus in culture", "format": "cell-based, Staphylococcus aureus", "settings": "for MIC Sa43300: Table 12, wild-type strain"}, "S. aureus (Sa) DHFR": {"molecular_target": "S. aureus (Sa) DHFR (Staphylococcus aureus, UniProt P0A017)", "format": "biochemical", "settings": "Table 2"}, "E. coli (Ec) DHFR": {"molecular_target": "E. coli (Ec) DHFR (Escherichia coli (strain K12), UniProt P0ABQ4)", "assay": "E. coli DHFR enzyme inhibition (NADPH oxidation, 340 nm)", "format": "biochemical"}, "E. coli (ATCC 25922)": {"test_system": "E. coli (ATCC 25922)", "assay": "E. coli MIC, microdilution broth assay", "format": "cell-based, Escherichia coli", "description": "Minimum inhibitory concentrations were determined using E. coli (ATCC 25922) and the microdilution broth assay with an inoculum of […] CFU/mL in Isosensitest Broth (Oxoid)."}, "E. coli NR698": {"test_system": "E. coli NR698", "format": "cell-based, Escherichia coli"}, "MtbDHFR": {"molecular_target": "MtbDHFR (Mycobacterium tuberculosis (strain ATCC 25618 / H37Rv), UniProt P9WNX1)", "assay": "M. tuberculosis DHFR enzyme inhibition", "format": "biochemical"}, "Mtb": {"test_system": "Mtb", "assay": "M. tuberculosis MIC, microtiter broth dilution (Table 6)", "format": "cell-based, Mycobacterium tuberculosis", "description": "(provided by Leonid Heifets).\nEach isolate was tested in duplicate."}}, "note": "Where two headings read alike, the source gives them in different places. Marks after values point to notes of the source that are not given here."}
{"smiles": "CCc1nc(N)nc(N)c1C#CC(C)c1cc(-c2ccncc2)ccc1OC", "note": "(racemic) [C, reference compound]", "values": [{"measurement": "MIC Sa43300", "setting": "[1]", "result": 0.625, "unit": "µg/mL"}, {"measurement": "MIC Sa(H30N)", "setting": "Sa(H30N) strain", "result": 2.5, "unit": "µg/mL"}]}
{"smiles": "CCc1nc(N)nc(N)c1C#CCc1cc(-c2ccccc2C(=O)O)ccc1OC", "note": "[Compound 13]", "values": [{"measurement": "IC50", "setting": "S. aureus (Sa) DHFR", "result": 359, "unit": "nM"}, {"measurement": "IC50", "setting": "E. coli (Ec) DHFR; Table 2", "result": 195, "unit": "nM"}, {"measurement": "MIC S. aureus 43300", "setting": "[1]", "result": ">20", "unit": "µg/mL"}, {"measurement": "MIC E. coli 25922", "setting": "E. coli (ATCC 25922); Table 2, wild-type E. coli", "result": ">32", "unit": "µg/mL"}, {"measurement": "MIC E. coli NR698", "setting": "E. coli NR698; Table 2", "result": 20, "unit": "µg/mL"}]}
{"smiles": "CCc1nc(N)nc(N)c1C#CCc1cc(-c2ccccc2C(=O)O)ccc1OC", "note": "[Compound 14]", "values": [{"measurement": "IC50", "setting": "S. aureus (Sa) DHFR", "result": 157, "unit": "nM"}, {"measurement": "IC50", "setting": "E. coli (Ec) DHFR; Table 2", "result": 526, "unit": "nM"}, {"measurement": "MIC S. aureus 43300", "setting": "[1]", "result": 0.625, "unit": "µg/mL"}, {"measurement": "MIC E. coli 25922", "setting": "E. coli (ATCC 25922); Table 2, wild-type E. coli", "result": ">20", "unit": "µg/mL"}, {"measurement": "MIC E. coli NR698", "setting": "E. coli NR698; Table 2", "result": 0.0391, "unit": "µg/mL"}, {"measurement": "IC50", "setting": "MtbDHFR", "result": 311, "unit": "nM"}, {"measurement": "MIC Mtb", "setting": "Mtb", "result": 1, "unit": "µg/mL"}]}
{"smiles": "CCc1nc(N)nc(N)c1C#CCc1cc(OC)cc(-c2ccc(C(=O)O)cc2)c1", "note": "[Compound 16]", "values": [{"measurement": "IC50", "setting": "E. coli (Ec) DHFR; Table 2", "result": 507, "unit": "nM"}, {"measurement": "MIC S. aureus 43300", "setting": "[1]", "result": 0.0195, "unit": "µg/mL"}, {"measurement": "MIC Sa43300", "setting": "[1]", "result": 0.0195, "unit": "µg/mL"}, {"measurement": "MIC E. coli 25922", "setting": "E. coli (ATCC 25922); Table 2, wild-type E. coli", "result": ">20", "unit": "µg/mL"}, {"measurement": "MIC E. coli NR698", "setting": "E. coli NR698; Table 2", "result": 0.0049, "unit": "µg/mL"}, {"measurement": "MIC Sa(H30N)", "setting": "Sa(H30N) strain", "result": 0.1563, "unit": "µg/mL"}]}
{"smiles": "CCc1nc(N)nc(N)c1C#C[C@@H](C)c1cc(-c2ccc(C(=O)O)cc2)ccc1OC", "note": "[Compound 30]", "values": [{"measurement": "MIC S. aureus 43300", "setting": "[1]", "result": 0.0195, "unit": "µg/mL"}, {"measurement": "MIC E. coli 25922", "setting": "E. coli (ATCC 25922); Table 2, wild-type E. coli", "result": 20, "unit": "µg/mL"}, {"measurement": "MIC E. coli NR698", "setting": "E. coli NR698; Table 2", "result": 0.0012, "unit": "µg/mL"}]}
{"smiles": "CCc1nc(N)nc(N)c1C#C[C@H](C)c1cc(OC)cc(-c2ccc(C(=O)O)cc2)c1", "note": "[Compound 31]", "values": [{"measurement": "MIC S. aureus 43300", "setting": "[1]", "result": 0.0098, "unit": "µg/mL"}, {"measurement": "MIC Sa43300", "setting": "[1]", "result": 0.0098, "unit": "µg/mL"}, {"measurement": "MIC E. coli 25922", "setting": "E. coli (ATCC 25922); Table 2, wild-type E. coli", "result": 10, "unit": "µg/mL"}, {"measurement": "MIC E. coli NR698", "setting": "E. coli NR698; Table 2", "result": 0.0024, "unit": "µg/mL"}, {"measurement": "MIC Sa(H30N)", "setting": "Sa(H30N) strain", "result": 0.0781, "unit": "µg/mL"}]}
{"smiles": "CCc1nc(N)nc(N)c1C#C[C@@H](C)c1cc(OC)cc(-c2ccc(C(=O)O)cc2)c1", "note": "[Compound 32]", "values": [{"measurement": "MIC S. aureus 43300", "setting": "[1]", "result": 0.0098, "unit": "µg/mL"}, {"measurement": "MIC Sa43300", "setting": "[1]", "result": 0.0098, "unit": "µg/mL"}, {"measurement": "MIC E. coli 25922", "setting": "E. coli (ATCC 25922); Table 2, wild-type E. coli", "result": 10, "unit": "µg/mL"}, {"measurement": "MIC E. coli NR698", "setting": "E. coli NR698; Table 2", "result": 0.0024, "unit": "µg/mL"}, {"measurement": "MIC Sa(H30N)", "setting": "Sa(H30N) strain", "result": 0.0781, "unit": "µg/mL"}]}
{"smiles": "CCc1nc(N)nc(N)c1C#C[C@H](C)c1cc(-c2ccc(C(=O)OC)cc2)ccc1OC", "note": "[Compound 33]", "values": [{"measurement": "IC50", "setting": "S. aureus (Sa) DHFR", "result": 22, "unit": "nM"}, {"measurement": "IC50", "setting": "E. coli (Ec) DHFR; Table 2", "result": 34, "unit": "nM"}, {"measurement": "MIC S. aureus 43300", "setting": "[1]; Table 2", "result": 0.625, "unit": "µg/mL"}, {"measurement": "MIC E. coli 25922", "setting": "E. coli (ATCC 25922); Table 2, wild-type E. coli", "result": ">20* μg/mL"}, {"measurement": "MIC E. coli NR698", "setting": "E. coli NR698; Table 2", "result": 0.156, "unit": "µg/mL"}]}
{"smiles": "CCc1nc(N)nc(N)c1C#C[C@@H](C)c1cc(-c2ccc(C(=O)OC)cc2)ccc1OC", "note": "[Compound 34]", "values": [{"measurement": "IC50", "setting": "S. aureus (Sa) DHFR", "result": 205, "unit": "nM"}, {"measurement": "IC50", "setting": "E. coli (Ec) DHFR; Table 2", "result": 172, "unit": "nM"}, {"measurement": "MIC S. aureus 43300", "setting": "[1]; Table 2", "result": 10, "unit": "µg/mL"}, {"measurement": "MIC E. coli 25922", "setting": "E. coli (ATCC 25922); Table 2, wild-type E. coli", "result": ">20* μg/mL"}, {"measurement": "MIC E. coli NR698", "setting": "E. coli NR698; Table 2", "result": 1.875, "unit": "µg/mL"}]}
{"smiles": "CCc1nc(N)nc(N)c1C#CCc1cc2c(c(-c3ccc(O)cc3)c1)OCO2", "note": "[Compound 37]", "values": [{"measurement": "IC50", "setting": "E. coli (Ec) DHFR; Table 3", "result": 2500, "unit": "nM"}, {"measurement": "MIC E. coli 25922", "setting": "E. coli (ATCC 25922); Table 3", "result": 0.625, "unit": "µg/mL"}, {"measurement": "MIC E. coli NR698", "setting": "E. coli NR698; Table 3", "result": 0.002, "unit": "µg/mL"}]}
{"smiles": "CCc1nc(N)nc(N)c1C#CCc1cc2c(c(-c3ccc(O)c(F)c3)c1)OCO2", "note": "[Compound 38]", "values": [{"measurement": "IC50", "setting": "E. coli (Ec) DHFR; Table 3", "result": 1250, "unit": "nM"}, {"measurement": "MIC E. coli 25922", "setting": "E. coli (ATCC 25922); Table 3", "result": 0.625, "unit": "µg/mL"}, {"measurement": "MIC E. coli NR698", "setting": "E. coli NR698; Table 3", "result": 0.001, "unit": "µg/mL"}]}
{"smiles": "CCc1nc(N)nc(N)c1C#CCc1cc2c(c(-c3cc(F)c(O)c(F)c3)c1)OCO2", "note": "[Compound 39]", "values": [{"measurement": "IC50", "setting": "E. coli (Ec) DHFR; Table 3", "result": 625, "unit": "nM"}, {"measurement": "MIC E. coli 25922", "setting": "E. coli (ATCC 25922); Table 3", "result": 0.625, "unit": "µg/mL"}, {"measurement": "MIC E. coli NR698", "setting": "E. coli NR698; Table 3", "result": 0.001, "unit": "µg/mL"}]}
{"smiles": "CCc1nc(N)nc(N)c1C#CCc1cc2c(c(-c3cc(F)c(OC)c(F)c3)c1)OCO2", "note": "[Compound 40]", "values": [{"measurement": "IC50", "setting": "E. coli (Ec) DHFR; Table 3", "result": "> 20000", "unit": "nM"}, {"measurement": "MIC E. coli 25922", "setting": "E. coli (ATCC 25922); Table 3", "result": 5, "unit": "µg/mL"}, {"measurement": "MIC E. coli NR698", "setting": "E. coli NR698; Table 3", "result": 0.78, "unit": "µg/mL"}]}
